Consider 29 compounds from US20240252508A1, “Novel glucose uptake inhibitors for use in the treatment of cancer” (NOVELYEAST BV, priority 2021, published 2024).

Molecules are shown by their SMILES.

In experiment [1] the test system is A549 lung adenocarcinoma cells. The experiment in a line: A549 cell proliferation / growth inhibition. Format: cell-based, human. As to conditions: for Selected from primary screen for growth inhibition of A549 cells at 50 μM: 50 μM compound, 1 mM glucose; for Selected for having an IC50 ratio (10 mM glucose: 1 mM glucose) of A549 growth higher than WBC-A: IC50 on 10 mM vs 1 mM glucose, compared with WBC-A. The method in brief: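 A549 growth screened in RPMI with 1 mM glucose, compounds at 50 μM; cell number from counts of Hoechst-stained nuclei after 3 days. Growth curves also followed by IncuCyte phase-contrast confluency over 3–5 days (1000–1500 cells/well), DMSO ≤0.1%, ≥4 technical repeats.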

Experiment [2] deals with tps1Δ cells. Nature of the experiment: Growth rescue of tps1Δ strain on glucose (growth curves, 2% galactose medium). The experiment is classed as cell-based, S. cerevisiae. The following applies: 100 μM compound, 2.5 mM glucose. The procedure, abridged:
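Growth at 30 °C was tracked by OD595 readings every 30 min, with at least triplicate technical wells. Cells came from 2% galactose synthetic precultures, were washed and set to OD 0.1, and received compound 10 min ahead of the glucose addition.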

On to `Cc1nc(NCCN2CCOCC2)c2c(-c3ccccc3)csc2n1` [85C], for which, in experiment [1], the “Selected from primary screen for growth inhibition of A549 cells at 50 μM” value was “Yes” and the “Selected for having an IC50 ratio (10 mM glucose: 1 mM glucose) of A549 growth higher than WBC-A” value (shortened to “Selected for having an IC50 ratio”) is “Higher IC50 ratio, but false-positive”. The “Rescue of the tps1Δ strain on 2.5 mM glucose at 100 μM” value (“Rescue of the tps1Δ strain” for short) in experiment [2] is listed as “No”.
For the compound `Cc1nc(Sc2cccc(C(F)(F)F)c2)c2c(-c3cccs3)csc2n1` [25C], in experiment [1], the “Selected from primary screen for growth inhibition of A549 cells at 50 μM” value was “Yes” and the “Selected for having an IC50 ratio” value is given as “Lower IC50 ratio”. Besides, the “Rescue of the tps1Δ strain” value in experiment [2] is listed as “No”.
For the compound `Cc1nc(SCC(=O)N(Cc2ccccc2)Cc2ccccc2)c2c(-c3cccs3)csc2n1` [22B], the “Selected from primary screen for growth inhibition of A549 cells at 50 μM” value in experiment [1] was “No”. Also, the “Rescue of the tps1Δ strain” value in experiment [2] is on record as “No”.
Turning to `COCc1nc(Sc2nnc(CN)n2C)c2c(-c3ccccc3)csc2n1` [40A], the “Selected from primary screen for growth inhibition of A549 cells at 50 μM” value in experiment [1] is recorded as “No”. Further, the “Rescue of the tps1Δ strain” value in experiment [2] is on record as “No”.
Turning to `CSc1nnc(Sc2nc(C)nc3scc(-c4cccs4)c23)s1` [29A], in experiment [1], the “Selected from primary screen for growth inhibition of A549 cells at 50 μM” value is listed as “No”. For the same compound, the “Rescue of the tps1Δ strain” value in experiment [2] is recorded as “No”.
For `O=C(CSc1ncnc2scc(-c3ccccc3)c12)N1CCOCC1` [60C], the “Selected from primary screen for growth inhibition of A549 cells at 50 μM” value in experiment [1] was “No”. In addition, in experiment [2], the “Rescue of the tps1Δ strain” value is reported as “No”.
For `Cc1nc(Sc2nnc(C(F)(F)F)n2C)c2c(-c3cccs3)csc2n1` [54C], in experiment [1], the “Selected from primary screen for growth inhibition of A549 cells at 50 μM” value is on record as “Yes” and the “Selected for having an IC50 ratio” value was “Lower IC50 ratio”. Also, the “Rescue of the tps1Δ strain” value in experiment [2] is given as “Yes”.
In the case of `Cc1nc(SCC(=O)NC(C)(C#N)C2CC2)c2c(-c3cccs3)csc2n1` (centres unmarked) [18B], in experiment [1], the “Selected from primary screen for growth inhibition of A549 cells at 50 μM” value is “Yes” and the “Selected for having an IC50 ratio” value is “Higher IC50 ratio, but false-positive”. Further, in experiment [2], the “Rescue of the tps1Δ strain” value is listed as “No”.
As for `CCOC(=O)c1sc2nc(C)nc(SCC(=O)CC)c2c1C` [12C], the “Selected from primary screen for growth inhibition of A549 cells at 50 μM” value in experiment [1] is reported as “No”. Also, the “Rescue of the tps1Δ strain” value in experiment [2] was “No”.
Consider `CCc1nc(Sc2nnc(CO)n2C)c2ccsc2n1` [41A], for which, in experiment [1], the “Selected from primary screen for growth inhibition of A549 cells at 50 μM” value is “Yes” and the “Selected for having an IC50 ratio” value is “Lower IC50 ratio”. Besides, the “Rescue of the tps1Δ strain” value in experiment [2] was “No”.
As for `Cc1nc(SCC(=O)N(CC(C)C)CC(C)C)c2c(-c3cccs3)csc2n1` [44B], in experiment [1], the “Selected from primary screen for growth inhibition of A549 cells at 50 μM” value was “Yes” and the “Selected for having an IC50 ratio” value is “Lower IC50 ratio”. In addition, in experiment [2], the “Rescue of the tps1Δ strain” value is reported as “No”.
As for `c1ccc(-c2csc3ncnc(Sc4nnc5ccccn45)c23)cc1` [49A], in experiment [1], the “Selected from primary screen for growth inhibition of A549 cells at 50 μM” value is on record as “Yes” and the “Selected for having an IC50 ratio” value is recorded as “Lower IC50 ratio”. Besides, the “Rescue of the tps1Δ strain” value in experiment [2] was “No”.
For `Cc1nc(SCC(=O)C(C)(C)C)c2c(-c3cccs3)csc2n1` [18A] the same measures were “Yes”, “Lower IC50 ratio” and “No”.
Turning to `Cc1nc(SCC(=O)NC(C)(C)C)c2c(-c3cccs3)csc2n1` [32B], in experiment [1], the “Selected from primary screen for growth inhibition of A549 cells at 50 μM” value is listed as “Yes” and the “Selected for having an IC50 ratio” value is reported as “Lower IC50 ratio”. In experiment [2], the “Rescue of the tps1Δ strain” value is reported as “Yes”.
Regarding `CC1CN(C(=O)CSc2ncnc3scc(-c4ccc(F)cc4)c23)CCO1` (centres unmarked) [37C], the “Selected from primary screen for growth inhibition of A549 cells at 50 μM” value in experiment [1] is on record as “No”. For the same compound, the “Rescue of the tps1Δ strain” value in experiment [2] is listed as “No”.
Take `Cc1nc(NCC(=O)NCc2ccco2)c2c(-c3ccccc3)csc2n1` [4C]: in experiment [1], the “Selected from primary screen for growth inhibition of A549 cells at 50 μM” value is given as “Yes”; the “Selected for having an IC50 ratio” value is “Higher IC50 ratio and confirmed”. The “Rescue of the tps1Δ strain” value in experiment [2] is recorded as “No”.
Take `Cc1nc(Sc2nnnn2-c2ccccc2C)c2c(-c3cccs3)csc2n1` [20C]: in experiment [1], the “Selected from primary screen for growth inhibition of A549 cells at 50 μM” value is listed as “Yes” and the “Selected for having an IC50 ratio” value is given as “Lower IC50 ratio”. Besides, the “Rescue of the tps1Δ strain” value in experiment [2] is “No”.
For the compound `Cc1nc(Sc2nnc[nH]2)c2cc(-c3ccccc3)sc2n1` [59A], in experiment [1], the “Selected from primary screen for growth inhibition of A549 cells at 50 μM” value is “No”. Further, the “Rescue of the tps1Δ strain” value in experiment [2] is “No”.
For the compound `Cc1sc2nc(-c3cccnc3)nc(SCCO)c2c1-c1ccccc1` [13C], in experiment [1], the “Selected from primary screen for growth inhibition of A549 cells at 50 μM” value is reported as “Yes” and the “Selected for having an IC50 ratio” value is on record as “Lower IC50 ratio”. In experiment [2], the “Rescue of the tps1Δ strain” value is “No”.
For the compound `CC1CCc2c(sc3ncnc(Sc4nnc5n4CCCCC5)c23)C1` (centres unmarked) [31A], the “Selected from primary screen for growth inhibition of A549 cells at 50 μM” value in experiment [1] was “No”. Further, the “Rescue of the tps1Δ strain” value in experiment [2] is recorded as “No”.
Take `Cc1nc(SCCC(N)=O)c2c(-c3cccs3)csc2n1` [4B]: the “Selected from primary screen for growth inhibition of A549 cells at 50 μM” value in experiment [1] was “No”. Besides, the “Rescue of the tps1Δ strain” value in experiment [2] was “No”.
Consider `Cn1nnnc1Sc1nc(CN2CCOCC2)nc2scc(-c3cccs3)c12` [54A], for which, in experiment [1], the “Selected from primary screen for growth inhibition of A549 cells at 50 μM” value is on record as “Yes” and the “Selected for having an IC50 ratio” value is given as “Lower IC50 ratio”. The “Rescue of the tps1Δ strain” value in experiment [2] was “No”.
Consider `Cc1nc(SC(C)C(=O)Nc2ccc(S(N)(=O)=O)cc2)c2c(-c3cccs3)csc2n1` (centres unmarked) [14B], for which, in experiment [1], the “Selected from primary screen for growth inhibition of A549 cells at 50 μM” value is on record as “Yes” and the “Selected for having an IC50 ratio” value was “Lower IC50 ratio”. In addition, the “Rescue of the tps1Δ strain” value in experiment [2] is recorded as “No”.
Take `Cc1nc(SCC(N)=O)c2c3c(sc2n1)CCC3` [49C]: the “Selected from primary screen for growth inhibition of A549 cells at 50 μM” value in experiment [1] is “No”. Moreover, the “Rescue of the tps1Δ strain” value in experiment [2] is given as “No”.
On to `O=c1ccnc(Sc2nc(CN3CCOCC3)nc3scc(-c4cccs4)c23)[nH]1` [7A], for which the “Selected from primary screen for growth inhibition of A549 cells at 50 μM” value in experiment [1] is “No”. Besides, the “Rescue of the tps1Δ strain” value in experiment [2] was “No”.
In the case of `CCn1c(Sc2nc(C)nc3scc(-c4cccs4)c23)n[nH]c1=O` [51A], in experiment [1], the “Selected from primary screen for growth inhibition of A549 cells at 50 μM” value is on record as “Yes” and the “Selected for having an IC50 ratio” value is given as “Lower IC50 ratio”. Further, in experiment [2], the “Rescue of the tps1Δ strain” value was “No”.
For `CCn1nnnc1Sc1ncnc2scc(-c3ccc(C)cc3)c12` [61A] the same measures were “Yes”, “Lower IC50 ratio” and “No”.
Take `CNc1nnc(Sc2nc(C)nc3scc(-c4cccs4)c23)s1` [32A]: in experiment [1], the “Selected from primary screen for growth inhibition of A549 cells at 50 μM” value is listed as “No”. In addition, the “Rescue of the tps1Δ strain” value in experiment [2] was “No”.
With `Cc1nc(SCC(=O)c2ccc(NC(=O)CC(C)C)cc2)c2c(-c3cccs3)csc2n1` [38B], the “Selected from primary screen for growth inhibition of A549 cells at 50 μM” value in experiment [1] is given as “No”. The “Rescue of the tps1Δ strain” value in experiment [2] is listed as “No”.
